Laboratory results published in patent publication US7598234B2, “Steroid derived antibiotics” (Brigham Young University, priority 1998, dated 2009).
Values after ≈ are worked out from the molar mass of the structure shown. Values belong to the compound of their own block, whether it stands above or below them.

Columns and labels:
[1] = system: E. coli (ATCC 25922); assay: Sensitization to erythromycin, E. coli (ATCC 25922); type: cell-based, Escherichia coli; conditions: for c: concentration required to lower the MIC of erythromycin from 36 to 1 μg/mL: Table 16, E. coli
Method: FICs can be performed by checkerboard titrations of compounds in one dimension of a microtiter plate, and of antibiotics in the other dimension, for example. The FIC is calculated by looking at the impact of one antibiotic on the MIC of the other and vice versa. […] Preferably, an FIC of less than 0.5 is obtained for synergism. As used herein, FIC can be determined as follows:
(§1) Aliquots of 1 mL of the suspension were added to test tubes containing 1 mL TSB and incrementally varied concentrations of cholic acid derivatives and/or erythromycin or novobiocin. In the sensitization experiments, erythromycin or novobiocin were added 15 minutes later than the cholic acid derivatives. The samples were subjected to stationary incubation at 37° C. for 24 hours. Sample turbidity was determined by measuring absorption at 760 nm (HP 8453 UV-Visible Chemstation, Hewlett Packard). Additionally, an alliquot from each of the samples showing no measurable turbidity was subcultured on TSA plates (alliquots were diluted to provide fewer than 300 CFU). Colonies that grew on the subculture after overnight incubation were counted and the number of CFU/mL in the samples were calculated. The calculated values were compared to the number of CFU/mL in the original inoculum.
Concentrations of 0.5, 1.0 or 3.0 μg/mL of these antibiotics were used, and the concentrations of the cholic acid derivatives required to inhibit bacterial growth of Gram-negative strains were determined.
(§2) Minimum inhibition concentrations (MIC) and minimum hemolytic concentrations (MHC) were measured as described in Li et al., Antimicrob. Agents. Chemother., 1999, 43, 1347.

[2] = system: E. coli (ATCC 25922); assay: MIC and MBC measurement with E. coli (ATCC 25922); type: cell-based, Escherichia coli; conditions: for MIC (MIC^b): Table 16, E. coli (ATTC 25922)
From the text: (§3) General: Microorganisms. Reference strains were purchased from the American Type Culture Collection (Rockville, Md.) or Bactrol disks from Difeo Laboratories (Detroit, Mich.). The following specific ATCC strains were used: 10798 Escherichia coli, 25922 Escherichia coli, 13883 Klebsiella pneumoniae, 27853 Pseudomonas aeruginosa, 14028 Salmonella typhimurium, 29212 Enterococcus faecalis, 25923 Staphylococcus aureus, 19615 Streptococcus pyogenes, and 90028 Candida albicans. Bacterial strains were maintained on Mueller-Hinton agar plates, and Candida albicans was maintained on Sabouraud Dextrose agar plates.
(§4) Tryptic soy broth (TSB) was made by dissolving 27.5 grams of tryptic soy broth without dextrose (DIFCO Laboratories) in 1 liter of deionized water and sterilizing at 121° C. for 15 minutes. Solid agar (TSA) plates were made by dissolving 6.4 grams of tryptic soy broth and 12 grams of agar (purified grade, Fischer Scientific) in 800 mL of deionized water and sterilizing at 121° C. for 20 minutes. Aliquots (20 mL) of the homogeneous solution were then poured in sterile plastic petri dishes (100×15 mm, Fisher Scientific). Solutions of compounds were made by dissolving the HCl salt of the respective compound into an appropriate amount of deionized and sterilized water followed by microfiltration.
as §1, with “inoculum. […]” for “inoculum.”

[3] = system: Staphylococcus aureus ATCC 25923; assay: MIC and MBC measurement with Staphylococcus aureus ATCC 25923; type: cell-based; conditions: for MIC (MIC^a): Table 16, S. aureus (ATTC 25923)
From the text: as §3, §4
as §1, with “inoculum. […]” for “inoculum.”

[4] = system: Streptococcus pyrogenes ATCC 19615; assay: MIC and MBC measurement with Streptococcus pyogenes ATCC 19615; type: cell-based; conditions: Table 10
From the text: as §3, §4, §1

[5] = system: Candida albicans ATCC 90028; assay: MIC and MBC measurement with Candida albicans ATCC 90028; type: cell-based; conditions: Table 10
From the text: as §3, §4, §1

[6] = system: Pseudomonas aeruginosa (ATCC 27853); assay: Sensitization to erythromycin, Pseudomonas aeruginosa (ATCC 27853); type: cell-based
Method: (§5) Alternatively, “fractional inhibitory concentration (FIC)” is also useful for determination of synergy between the compounds of the invention, or the compounds in combination with known antibiotics. FICs can be performed by checkerboard titrations of compounds in one dimension of a microtiter plate, and of antibiotics in the other dimension, for example. The FIC is calculated by looking at the impact of one antibiotic on the MIC of the other and vice versa. […] Preferably, an FIC of less than 0.5 is obtained for synergism. As used herein, FIC can be determined as follows:
as §1, with “inoculum. […]” for “inoculum.”
(§6) To measure permeabilization, the FIC values for compounds 1, 2, 5, 106, 10, 112, 133, and 134 with erythromycin, novobiocin, and rifampicin were determined. Concentrations of 0.5, 1.0 or 3.0 μg/mL of these antibiotics were used, and the concentrations of the cholic acid derivatives required to inhibit bacterial growth of Gram-negative strains were determined.

[7] = system: E. coli (ATCC 10798); assay: MIC and MBC measurement with E. coli (ATCC 10798); type: cell-based, Escherichia coli
From the text: as §3, §4, §1

[8] = system: Salmonella typhimurium ATCC 14028; assay: MIC and MBC measurement with Salmonella typhimurium ATCC 14028; type: cell-based; conditions: Table 10
From the text: as §3, §4, §1

[9] = system: Pseudomonas aeruginosa (ATCC 27853); assay: MIC and MBC measurement with Pseudomonas aeruginosa (ATCC 27853); type: cell-based
From the text: as §3, §4, §1

[10] = Method: as §2
[11] = system: Klebsiella pneumonia ATCC 13883; assay: MIC and MBC measurement with Klebsiella pneumoniae ATCC 13883; type: cell-based; conditions: Table 10
From the text: as §3, §4, §1

[12] = system: Enterococcus faecalis ATCC 29212; assay: MIC and MBC measurement with Enterococcus faecalis ATCC 29212; type: cell-based; conditions: Table 10
From the text: as §3, §4, §1

[13] = system: E. coli (ATCC 10798); assay: Sensitization to erythromycin (concentration lowering the MIC of erythromycin), E. coli (ATCC 10798); type: cell-based, Escherichia coli; conditions: Table 2, E. coli (ATCC 10798)
Method: as §5, §1
(§7) Ability to permeabilize outer membrane: Compounds 11, 106, and 108-114 (FIG. 1) were tested for antibiotic activity. They were also tested for the ability to permeabilize the outer membrane of Gram-negative bacteria, causing sensitization to hydrophobic antibiotics that cannot cross the outer membrane. The permeabilization of the outer membrane was measured using erythromycin and novobiocin.
(§8) The MICs of erythromycin and novobiocin against E. coli (ATCC 10798) at 70 and >500 μg/mL were measured.

[14] = system: E. coli (ATCC 10798); assay: Sensitization to novobiocin (concentration lowering the MIC of novobiocin), E. coli (ATCC 10798); type: cell-based, Escherichia coli; conditions: Table 3, E. coli (ATCC 10798)
Method: as §5, §1, §7, §8

[15] = system: Pseudomonas aeruginosa (ATCC 27853); assay: Sensitization to novobiocin, Pseudomonas aeruginosa (ATCC 27853); type: cell-based; conditions: Table 8; P. aureginosa (ATCC 27853)
Method: as §5
as §1, with “inoculum. […]” for “inoculum.”
as §6

[16] = Table 10, Escherichia coli ATCC 25922
[17] = Table 10, Pseudomonas aeruginosa ATCC 27853
[18] = Table 10, Staphylococcus aureus ATCC 25923
[19] = Table 6, P. aureginosa (ATCC 27853)

- MIC (MIC^b) [2]: 1.0 µg/mL (≈ 1.45 µM)
- MIC (MIC^a) [3]: 1.8 µg/mL (≈ 2.6 µM)
SMILES: CCCCCCCCOC(=O)CC[C@@H](C)[C@H]1CC[C@H]2[C@@H]3[C@H](OC(=O)CN)C[C@@H]4C[C@H](OC(=O)CN)CC[C@]4(C)[C@H]3C[C@H](OC(=O)CN)[C@]12C [Compound 341]
- c: concentration required to lower the MIC of erythromycin from 36 to 1 μg/mL [1]: 0.7 µg/mL

- MIC (MIC^b) [2]: 3.5 µg/mL (≈ 4.51 µM)
- MIC (MIC^a) [3]: 1.2 µg/mL (≈ 1.55 µM)
SMILES: CCCCCCCCOC(=O)CC[C@@H](C)[C@H]1CC[C@H]2[C@@H]3[C@H](OC(=O)CCCN)C[C@@H]4C[C@H](OC(=O)CCCN)CC[C@]4(C)[C@H]3C[C@H](OC(=O)CCCN)[C@]12C [Compound 343]
- c: concentration required to lower the MIC of erythromycin from 36 to 1 μg/mL [1]: 3.5 µg/mL

SMILES: CCCCCCCCNCCC[C@@H](C)[C@H]1CC[C@H]2[C@@H]3[C@H](OCCCNC(=N)N)C[C@@H]4C[C@H](OCCCNC(=N)N)CC[C@]4(C)[C@H]3C[C@H](OCCCNC(=N)N)[C@]12C [Compound 134]
- MBC [4]: 3.5 µg/mL (≈ 4.36 µM)
- MIC [4]: 3.5 µg/mL (≈ 4.36 µM)
- FIC ([1]; Table 11, Escherichia coli ATCC 25922, erythromycin (by order)): 0.36
- concentration required to inhibit bacterial growth with antibiotic ([1]; Table 11, Escherichia coli ATCC 25922, erythromycin (by order) at 0.5, 1.0 or 3.0 μg/mL): 0.37 µg/mL
- MBC [5]: 76 µg/mL (≈ 94.6 µM)
- MIC [5]: 53 µg/mL (≈ 66 µM)
- MBC [2, 16]: 0.37 µg/mL (≈ 0.461 µM)
- MIC [2, 16]: 0.31 µg/mL (≈ 0.386 µM)
- FIC ([6]; Table 11, Pseudomonas aeruginosa ATCC 27853, erythromycin (by order)): 0.42
- concentration required to inhibit bacterial growth with antibiotic ([6]; Table 11, Pseudomonas aeruginosa ATCC 27853, erythromycin (by order) at 0.5, 1.0 or 3.0 μg/mL): 0.70 µg/mL
- MIC (in words) ([7]; FIG. 5, strain not named): very low
- MBC [8]: 1.8 µg/mL (≈ 2.24 µM)
- MIC [8]: 0.81 µg/mL (≈ 1.01 µM)
- MBC [9, 17]: 2.9 µg/mL (≈ 3.61 µM)
- MIC [9, 17]: 2.0 µg/mL (≈ 2.49 µM)
- MHC [10]: 9.0 µg/mL
- MBC [11]: 3.0 µg/mL (≈ 3.73 µM)
- MIC [11]: 0.84 µg/mL (≈ 1.05 µM)
- MBC [3, 18]: 1.4 µg/mL (≈ 1.74 µM)
- MIC [3, 18]: 0.59 µg/mL (≈ 0.735 µM)
- MBC [12]: 5.8 µg/mL (≈ 7.22 µM)
- MIC [12]: 3.0 µg/mL (≈ 3.73 µM)

- MIC ([2]; Table 4, E. coli (ATCC 25922)): 6 µg/mL (≈ 7.97 µM)
- MIC ([7]; Table 1, E. coli (ATCC 10798)): 5 µg/mL (≈ 6.64 µM)
- MIC [9, 19]: 15 µg/mL (≈ 19.9 µM)
SMILES: C[C@H](CCCN(C)Cc1ccccc1)[C@H]1CC[C@H]2[C@@H]3[C@H](OCCNC(=N)N)C[C@@H]4C[C@H](OCCNC(=N)N)CC[C@]4(C)[C@H]3C[C@H](OCCNC(=N)N)[C@]12C [Compound 4]
- MIC: concentration required to lower the MIC of erythromycin from 70 μg/mL to 1 μg/mL [13]: 1.5 µg/mL
- MBC (with erythromycin) ([13]; erythromycin sensitization): 10 µg/mL
- MIC: concentration required to lower the MIC of erythromycin from 60 μg/mL to 1 μg/mL ([1]; Table 5, E. coli (ATCC 25922)): 1 µg/mL
- MBC (with erythromycin) ([1]; Table 5, E. coli (ATCC 25922), erythromycin sensitization): 5 µg/mL
- MBC ([2]; Table 4, E. coli (ATCC 25922)): 9 µg/mL (≈ 12 µM)
- MIC: concentration required to lower the MIC of erythromycin from 240 μg/mL to 5 μg/mL ([6]; Table 7, P. aureginosa (ATCC 27853)): 5 µg/mL
- MBC (with erythromycin) ([6]; Table 7, P. aureginosa (ATCC 27853), erythromycin sensitization): 40 µg/mL
- MBC ([7]; Table 1, E. coli (ATCC 10798)): 10 µg/mL (≈ 13.3 µM)
- MIC: concentration required to lower the MIC of novobiocin from >500 μg/mL to 1 μg/mL [14]: 5 µg/mL
- MBC (with novobiocin) ([14]; novobiocin sensitization): 10 µg/mL
- MIC: concentration required to lower the MIC of novobiocin from >500 μg/mL to 1 μg/mL [15]: 6 µg/mL
- MBC [9, 19]: 40 µg/mL (≈ 53.1 µM)
